Experimental data published in patent US12630551B2, “Endocyclic pyrimidinone compounds, and preparation methods, compositions and use thereof” (NEUSCO BIOTECH LIMITED, priority 2020, dated 2026).

Assays:
[1] = target: T1, recombinant human Lp-PLA2 enzyme (Homo sapiens, UniProt Q13093); test: Recombinant human Lp-PLA2 (rhLp-PLA2) assay (PED6 assay); format: biochemical; settings: PED6 substrate, enzyme 4 nM or 110 pM, 30-min pre-incubation, fluorescence ex 480/em 540; for IC50: read-out: rhLp-PLA2 (pIC50) (converted)
T1 sequence (Q13093 22-441): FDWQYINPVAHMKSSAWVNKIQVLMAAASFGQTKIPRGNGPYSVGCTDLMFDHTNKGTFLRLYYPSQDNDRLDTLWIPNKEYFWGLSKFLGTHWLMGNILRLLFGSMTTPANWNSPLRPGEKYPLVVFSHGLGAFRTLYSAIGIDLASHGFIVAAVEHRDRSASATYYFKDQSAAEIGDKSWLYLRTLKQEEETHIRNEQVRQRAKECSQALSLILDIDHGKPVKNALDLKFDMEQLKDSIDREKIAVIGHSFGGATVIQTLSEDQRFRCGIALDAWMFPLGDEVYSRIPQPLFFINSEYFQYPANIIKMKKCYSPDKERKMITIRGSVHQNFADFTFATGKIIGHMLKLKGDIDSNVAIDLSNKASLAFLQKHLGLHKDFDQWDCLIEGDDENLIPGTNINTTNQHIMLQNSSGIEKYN
Protocol: (1) Recombinant Human Lp-PLA2 (rhLp-PLA2) Assay (Also Known as PED6 Assay) PED6 is a fluorescently labeled phospholipid, which could be purchased directly from Invitogene or Molecular Probes. PED6 has a fluorescence quenching […] and a Bodipy fluorescein (FL) group at the sn2 position. Once cleaved by an Lp-PLA2 enzyme, it will release the FL group, resulting in enhanced fluorescence. […] The plate was centrifuged at 500 rpm for 10 seconds.

[2] = target: T2, Lp-PLA2 enzyme in human plasma (Homo sapiens, UniProt Q13093); test: Human plasma Lp-PLA2 assay (Thio-PAF assay); format: biochemical; settings: mixed human plasma, 2-thio-PAF substrate, CPM, 30-min pre-incubation, fluorescence ex 380/em 485; for IC50: read-out: Thio-PAF (pIC50) (converted)
T2 construct: from tissue; host or cells: mixed (pooled) human plasma
T2 sequence (Q13093 22-441): T1 sequence (Q13093 22-441)
Protocol: (2) Human Plasma Lp-PLA2 Assay (Also Known as Thio-PAF Assay) The human plasma assay was conducted using the […] analog of PAF (phosphatidylcholine). After hydrolysis, it would generate phospholipids containing free sulfhydryl groups, which would be subjected to Michael addition with CPM to generate fluorescence-enhancing maleimide. Continuous quantitative analysis of thiol could be conducted by detecting the fluorescence intensity. This assay can be used to detect the inhibitory activity of the Lp-PLA2 inhibitor on the Lp-PLA2 enzyme in human plasma. […] The plate was centrifuged at 500 rpm for 10 seconds. […] Two minutes later, the reaction was quenched with 5 μl of 5% trifluoroacetic acid.

| IC50 [1] | IC50 [2] | rhLp-PLA2 (pIC50) [1] | Thio-PAF (pIC50) [2] | SMILES |
| --- | --- | --- | --- | --- |
| 0.0398 nM | 6.31 nM |  |  | O=c1nc(OCc2cc(F)c(Oc3ccc(Cl)c(C(F)(F)F)c3)c(F)c2)cc2n1CC1CCCN2C1 (stereo not shown) [Compound 14] |
| 0.2 nM | 12.6 nM |  |  | O=c1nc(OCc2cc(F)c(Oc3ccc(OC(F)(F)F)c(Cl)c3)c(F)c2)cc2n1CC1CCCN2C1 (stereo not shown) [Compound 15] |
| 0.0794 nM | 7.94 nM |  |  | O=c1nc(OCc2cc(F)c(Oc3ccc(C(F)(F)F)c(Cl)c3)c(F)c2)cc2n1CC1CCCN2C1 (stereo not shown) [Compound 16] |
| 0.0794 nM | 7.94 nM |  |  | Cc1ccc(Oc2c(F)cc(COc3cc4n(c(=O)n3)C[C@H]3CCCN4C3)cc2F)cn1 [Compound 18] |
| 0.0316 nM | 3.16 nM |  |  | O=c1nc(OCc2cc(F)c(Oc3cccc(C(F)(F)F)c3)c(F)c2)cc2n1C[C@H]1CCCN2C1 [Compound 20] |
| 3.16 nM | 39.8 nM |  |  | O=c1nc(OCc2cc(F)cc(F)c2)cc2n1C[C@H]1CCCN2C1 [Compound 21] |
| 31.6 nM | 316 nM |  |  | O=c1nc(OCc2cc(F)c(F)cc2F)cc2n1C[C@H]1CCCN2C1 [Compound 22] |
| 0.1 nM | 7.94 nM |  |  | Cc1ccc(Oc2c(F)cc(COc3cc4n(c(=O)n3)C[C@@H]3CCCN4C3)cc2F)cn1 [Compound 24] |
| 0.0398 nM | 3.98 nM |  |  | O=c1nc(OCc2cc(F)c(Oc3cccc(C(F)(F)F)c3)c(F)c2)cc2n1C[C@@H]1CCCN2C1 [Compound 26] |
|  | 50.1 nM | 8.5 |  | O=c1nc(OCc2cc(F)cc(F)c2)cc2n1C[C@H]1CCCN2C1 [Compound 27] |
| 39.8 nM |  |  | 6.5 | O=c1nc(OCc2cc(F)c(F)cc2F)cc2n1C[C@H]1CCCN2C1 [Compound 28] |
| 0.158 nM | 10 nM |  |  | Cc1ccc(Oc2c(F)cc(COc3cc4n(c(=O)n3)C[C@@H]3CN4CCO3)cc2F)cn1 [Compound 30] |
| 3.98 nM | 79.4 nM |  |  | O=c1nc(OCc2cc(F)cc(F)c2)cc2n1C[C@@H]1CN2CCO1 [Compound 33] |
| 63.1 nM | 501 nM |  |  | O=c1nc(OCc2cc(F)c(F)cc2F)cc2n1C[C@@H]1CN2CCO1 [Compound 34] |
| 0.126 nM | 12.6 nM |  |  | Cc1ccc(Oc2c(F)cc(COc3cc4n(c(=O)n3)C[C@H]3CN4CCO3)cc2F)cn1 [Compound 36] |
|  | 100 nM | 8.4 |  | O=c1nc(OCc2cc(F)cc(F)c2)cc2n1C[C@@H]1CN2CCO1 [Compound 39] |
| 50.1 nM |  |  | 6.3 | O=c1nc(OCc2cc(F)c(F)cc2F)cc2n1C[C@@H]1CN2CCO1 [Compound 40] |

Continued, molecule first:

| SMILES | IC50 [1] | IC50 [2] | rhLp-PLA2 (pIC50) [1] | Thio-PAF (pIC50) [2] |
| --- | --- | --- | --- | --- |
| O=c1nc(OCc2ccc(F)cc2F)cc2n1CC1CCCN2C1 (stereo not shown) [Compound 2] | 2.51 nM | 31.6 nM |  |  |
| O=c1nc(OCc2cc(F)c(F)cc2F)cc2n1CC1CCCN2C1 (stereo not shown) [Compound 3] | 31.6 nM | 316 nM |  |  |
| O=c1nc(OCc2cc(F)cc(F)c2)cc2n1CC1CCCN2C1 (stereo not shown) [Compound 4] | 3.16 nM | 39.8 nM |  |  |
| O=c1nc(OCc2cc(F)c(Oc3ccnc(C(F)(F)F)c3)c(F)c2)cc2n1CC1CCCN2C1 (stereo not shown) [Compound 5] | 0.0316 nM | 3.16 nM |  |  |
| Cc1cc(Oc2c(F)cc(COc3cc4n(c(=O)n3)CC3CCCN4C3)cc2F)ccn1 (stereo not shown) [Compound 6] | 0.0631 nM | 6.31 nM |  |  |
| Cc1ccc(Oc2c(F)cc(COc3cc4n(c(=O)n3)CC3CCCN4C3)cc2F)cn1 (stereo not shown) [Compound 7] | 0.0794 nM | 7.94 nM |  |  |
| Cc1ncc(Oc2c(F)cc(COc3cc4n(c(=O)n3)CC3CCCN4C3)cc2F)cn1 (stereo not shown) [Compound 8] | 0.316 nM | 15.8 nM |  |  |
| O=c1nc(OCc2cc(F)c(Oc3cnc(C(F)(F)F)nc3)c(F)c2)cc2n1CC1CCCN2C1 (stereo not shown) [Compound 9] | 0.1 nM | 10 nM |  |  |
| O=c1nc(OCc2cc(F)c(Oc3cccc(C(F)(F)F)c3)c(F)c2)cc2n1CC1CCCN2C1 (stereo not shown) [Compound 10] | 0.126 nM | 10 nM |  |  |
| Cc1cc(Oc2c(F)cc(COc3cc4n(c(=O)n3)CC3CCCN4C3)cc2F)ccc1Cl (stereo not shown) [Compound 11] | 0.0794 nM | 7.94 nM |  |  |
| O=c1nc(OCc2cc(F)c(Oc3cccc(OC(F)(F)F)c3)c(F)c2)cc2n1CC1CCCN2C1 (stereo not shown) [Compound 12] | 0.316 nM | 15.8 nM |  |  |
| O=c1nc(OCc2cc(F)c(Oc3ccc(C(F)(F)F)cc3)c(F)c2)cc2n1CC1CCCN2C1 (stereo not shown) [Compound 13] | 0.0631 nM | 7.94 nM |  |  |
